From ChEMBL document CHEMBL1155919, “Inhibition of human mitochondrial carbonic anhydrases VA and VB with para-(4-phenyltriazole-1-yl)-benzenesulfonamide derivatives” (Bioorg Med Chem Lett, 2008)

Columns and labels:
Carbonic anhydrase 2 = Carbonic anhydrase 2 (Homo sapiens, UniProt P00918)
Carbonic anhydrase 1 = Carbonic anhydrase 1 (Homo sapiens, UniProt P00915)
[1] = molecular target: Carbonic anhydrase 5A, mitochondrial (Homo sapiens, UniProt P35218)
[2] = molecular target: Carbonic anhydrase 5B, mitochondrial (Homo sapiens, UniProt Q9Y2D0)
Chain of Carbonic anhydrase 5B, mitochondrial (Q9Y2D0 whole entry): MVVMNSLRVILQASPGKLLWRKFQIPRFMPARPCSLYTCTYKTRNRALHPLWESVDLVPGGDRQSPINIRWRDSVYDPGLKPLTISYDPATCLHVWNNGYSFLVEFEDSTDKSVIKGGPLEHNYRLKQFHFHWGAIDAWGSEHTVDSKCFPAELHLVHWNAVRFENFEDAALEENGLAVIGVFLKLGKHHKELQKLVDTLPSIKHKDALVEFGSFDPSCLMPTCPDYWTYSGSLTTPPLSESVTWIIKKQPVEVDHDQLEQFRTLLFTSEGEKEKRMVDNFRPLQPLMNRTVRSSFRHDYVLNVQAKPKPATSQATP

Chain of Carbonic anhydrase 1 (P00915 whole entry): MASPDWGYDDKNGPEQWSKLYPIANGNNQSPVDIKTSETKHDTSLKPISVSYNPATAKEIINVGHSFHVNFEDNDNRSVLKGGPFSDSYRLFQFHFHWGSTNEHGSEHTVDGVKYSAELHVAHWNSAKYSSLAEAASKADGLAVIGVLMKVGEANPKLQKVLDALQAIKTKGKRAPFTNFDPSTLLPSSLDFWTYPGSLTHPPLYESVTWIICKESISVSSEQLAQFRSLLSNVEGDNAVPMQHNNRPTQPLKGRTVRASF
Chain of Carbonic anhydrase 5A, mitochondrial (P35218 whole entry): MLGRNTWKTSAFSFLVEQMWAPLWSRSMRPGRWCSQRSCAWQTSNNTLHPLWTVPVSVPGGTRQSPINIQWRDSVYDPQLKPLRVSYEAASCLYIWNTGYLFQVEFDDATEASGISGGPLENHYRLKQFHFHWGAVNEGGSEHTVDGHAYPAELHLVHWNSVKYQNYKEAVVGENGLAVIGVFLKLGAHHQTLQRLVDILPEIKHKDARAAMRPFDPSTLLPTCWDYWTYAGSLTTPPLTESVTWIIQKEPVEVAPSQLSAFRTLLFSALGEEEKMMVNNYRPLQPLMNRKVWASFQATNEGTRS

Ki (Carbonic anhydrase 2) [µM]	Ki (Carbonic anhydrase 1) [µM]	Ki [1] [µM]	Ki [2] [µM]	SMILES
0.0403	4.6	0.0142	0.0112	NS(=O)(=O)c1ccc(-n2cc(-c3ccc(F)cc3)nn2)cc1
–	2.1	0.0128	0.0106	Cc1ccc(-c2cn(-c3ccc(S(N)(=O)=O)cc3)nn2)cc1
–	5.1	0.0178	0.0106	NS(=O)(=O)c1ccc(-n2cc(-c3ccccc3)nn2)cc1
0.0084	2.2	0.0106	0.0518	COc1ccc(-c2cn(-c3ccc(S(N)(=O)=O)cc3)nn2)cc1
